Reference: patent publication US12195427B2, “MASP-2 inhibitors and methods of use” (priority 2018, dated 2025)

Target: MASP-2 CCP2-SP (Homo sapiens (Human), UniProt O00187)
Experiment: MASP-2 co-crystallization, X-ray crystallography and structure analysis (H-bonds, van der Waals contacts);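 as to Ligand-pharmacophore element distance, pharmacophore element C2: distance from averaged pharmacophore element to bound ligand; missing value means element absent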;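 as to Ligand-pharmacophore element distance, pharmacophore element C3: distance from averaged pharmacophore element to bound ligand; missing value means element absent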;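 as to Ligand-pharmacophore element distance, pharmacophore element C4: distance from averaged pharmacophore element to bound ligand; missing value means element absent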;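 as to Ligand-pharmacophore element distance, pharmacophore element C5: distance from averaged pharmacophore element to bound ligand; missing value means element absent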
Parameters: van der Waals contact distance, MASP-2 HIS 483 atom CD2 / van der Waals contact distance, MASP-2 HIS 483 atom NE2 / van der Waals contact distance, SER 654 C to compound atom / van der Waals contact distance, SER 654 O to compound atom / van der Waals contact distance, TRP 655 C to compound atom / van der Waals contact distance, MASP-2 GLY 528 atom CA / van der Waals contact distance TRP 655 atom CZ3 / van der Waals contact distance TRP 655 atom N / van der Waals contact distance TRP 655 atom CE3 / van der Waals contact distance GLY 656 atom C / van der Waals contact distance GLY 656 atom CA / van der Waals contact distance GLY 656 atom O / van der Waals contact distance, MASP-2 TYR 607 atom CD1 / van der Waals contact distance, MASP-2 PRO 606 atom O / d(C3,CA1) / d(CA1,N1)2 / d(H4,O1) / d(H4,O2) / d(O1,O2) / d(CA1,O2) / d(CA6,O1) / d(CA6,O2) / d(CA1,C5) / d(O2,H3) / d(N2,C2) / d(CA5,N2) / d(N2,C4) / d(N2,C6) / d(N2,CA3) / d(N2,O3) / d(O4,H2): unit not given beside the values
Conditions: for Ligand-pharmacophore element distance, pharmacophore element C2 / Ligand-pharmacophore element distance, pharmacophore element C3 / Ligand-pharmacophore element distance, pharmacophore element C4 / Ligand-pharmacophore element distance, pharmacophore element C5 / Ligand-pharmacophore element distance, pharmacophore element C6 / Ligand-pharmacophore element distance, pharmacophore element C7 / Ligand-pharmacophore element distance, pharmacophore element CA1 / Ligand-pharmacophore element distance, pharmacophore element CA2 / Ligand-pharmacophore element distance, pharmacophore element CA3 / Ligand-pharmacophore element distance, pharmacophore element CA4 / Ligand-pharmacophore element distance, pharmacophore element CA5 / Ligand-pharmacophore element distance, pharmacophore element CA6: Table A4-1; for a(N1, CA1, O1) b): Methyl-amino-pyridine compounds; for Pharmacophore torsion angle a(O1, O2, N2, CA2): Table A7-2; for Pharmacophore protein distance to MET_658 (first MET_658 column) / Pharmacophore protein distance to MET_658 (second MET_658 column) / Pharmacophore protein distance to GLY_528 / Pharmacophore protein distance to PHE_529 / Pharmacophore protein distance to PRO_608 / Pharmacophore protein distance to SER_611 / Pharmacophore protein distance to TRP_655: Table A8-6, nearest protein atom in cell to the left; for Pharmacophore protein distance to MET_658 (first MET_658 column): 6th residue column; for Pharmacophore protein distance to MET_658 (second MET_658 column): 9th residue column; for Pharmacophore protein distance to TRP_655: pharmacophore elements C6, CA3, O3, H1
From the text: This example illustrates the preparation of recombinant MASP-2 protein, based on UniProt O00187, human mannan-binding lectin serine protease 2. Expression constructs for human MASP-2 CCP2-SP and CCP2-SP-6HIS were generated for recombinant expression in E. coli cells.
Typically, crystallization hits were obtained by screening against […] 96-well crystallization reagent kits (GRAS6, GRAS2, Hampton Research; MORPHEUS, Molecular Dimensions; Wizard 1&2 Cryo, Rigaku Reagents) and crystal growth was inspected by optical microscopy. Crystals were used directly or further optimized for X-ray diffraction. Crystals were captured with cryogenic loops and dipped into liquid nitrogen directly or cryoprotected with a 20% glycerol in crystallization formulation before flash-cooling in liquid nitrogen.
Thereafter crystals are transferred once or twice for soaking within the crystallization solution containing the MASP-2 inhibitor.
Crystals were diffracted with synchrotron X-rays of […] and X-ray diffraction datasets were collected at beamlines SSRL BL9-2, BL14-1, BL12-2 as well as ALS sector 5 using Dectris Pilatus and Eiger detectors. Structures were determined by molecular replacement using portions of the structure 1Q3X as search models and partially refined with Buster 2.10.2 or Refmac 5.8. […] When multiple ligand poses were observed, for instance arising from multiple molecules in the asymmetric unit or refined dual poses within the same molecule, only one pose was selected and analyzed.
LigPlot+ calls these ‘nonbonded contacts’ or ‘hydrophobic contacts’. Despite the name, there are atom pairings that include possible H-bonds. Thus, in some instances, the Table A2 also contains H-bond interactions.

[1] = Table A5-1 pharmacophore: distance between elements, S2/S1 region
[2] = Table A5-2 pharmacophore distance, S3/S4 region
[3] = Table A7-1, between pharmacophore elements of the bound compound
[4] = between pharmacophore elements of the bound compound

Chain of MASP-2 CCP2-SP (O00187 445-686): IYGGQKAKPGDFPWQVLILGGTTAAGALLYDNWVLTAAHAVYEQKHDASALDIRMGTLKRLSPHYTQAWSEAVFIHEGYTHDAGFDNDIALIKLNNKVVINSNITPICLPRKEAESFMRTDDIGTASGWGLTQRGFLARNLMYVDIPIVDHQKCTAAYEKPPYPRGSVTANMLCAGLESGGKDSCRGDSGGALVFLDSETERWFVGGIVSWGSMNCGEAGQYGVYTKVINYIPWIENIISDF
Chain of MASP-2 CCP2-SP (O00187 364-432 partner): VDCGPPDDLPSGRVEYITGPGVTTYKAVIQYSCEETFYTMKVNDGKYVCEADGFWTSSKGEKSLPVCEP

With C[C@H](NC(=O)[C@H](N)CCc1ccccc1)C(=O)NCc1ccc(N)nc1.Cl.Cl [1007_1] the “Ligand-pharmacophore element distance, pharmacophore element C2” value was 0, the “Ligand-pharmacophore element distance, pharmacophore element C3” value was 0 and the “Ligand-pharmacophore element distance, pharmacophore element C4” value was 0. The “Ligand-pharmacophore element distance, pharmacophore element C5” value was 0, the “Ligand-pharmacophore element distance, pharmacophore element C6” value was 0 and the “Ligand-pharmacophore element distance, pharmacophore element C7” value was 0. The “Ligand-pharmacophore element distance, pharmacophore element CA1” value was 0.35, the “Ligand-pharmacophore element distance, pharmacophore element CA2” value was 0.77 and the “Ligand-pharmacophore element distance, pharmacophore element CA3” value was 0. The “Ligand-pharmacophore element distance, pharmacophore element CA4” value was 0, the “Ligand-pharmacophore element distance, pharmacophore element CA5” value was 0 and the “Ligand-pharmacophore element distance, pharmacophore element CA6” value was 0. The “d(CA1,N1)2” value [1] was 1.38, the “d(CA1,O1)” value [1] was 4.39 and the “d(CA1,O2)” value [1] was 3.86. The “d(H4,O1)” value [1] was 3.59, the “d(H4,O2)” value [1] was 2.73 and the “d(O1,O2)” value [1] was 3.55. The “d(N2,CA2)” value [2] was 6.02, the “d(O2,H3)” value [2] was 4.41 and the “d(O2,N2)” value [2] was 2.79. The “a(CA1, O1, O2)” value (Table A6-1 pharmacophore angle) was 107.37, the “a(O1, O2, H4)” value (Table A6-1 pharmacophore angle) was 113.31 and the “a(N1, CA1, O1) b)” value (Table A6-1 pharmacophore angle) was 174.46. The “a(O1, O2, H3)” value (Table A6-2 pharmacophore angle) was 146.43, the “a(O1, O2, N2)” value (Table A6-2 pharmacophore angle) was 138.95 and the “a(O2, N2, CA2)” value (Table A6-2 pharmacophore angle) was 154.71. For the same compound, the “Pharmacophore torsion angle a(H4, O1, O2, H3)” value [3] was 50.93, the “Pharmacophore torsion angle a(H4, O1, O2, N2)” value [3] was 137.94 and the “Pharmacophore torsion angle a(N1, CA1, O1, H4)” value [3] was 39.07. For the same compound, the “Pharmacophore torsion angle a(O1, H4, O2, CA1)” value [3] was −94.99, the “Pharmacophore torsion angle a(O1, O2, N2, CA2)” value [4] was 128.23 and the “Pharmacophore protein distance to MET_658 (first MET_658 column)” value was 2.61. The “Pharmacophore protein distance to MET_658 (second MET_658 column)” value was 3.25, the “Pharmacophore protein distance to GLY_528” value was 3.76 and the “Pharmacophore protein distance to PHE_529” value was 3.15. For the same compound, the “Pharmacophore protein distance to PRO_608” value was 3.15, the “Pharmacophore protein distance to SER_611” value was 2.06 and the “Pharmacophore protein distance to TRP_655” value was 3.70.
In the case of C[C@H](NC(=O)[C@H](N)CCc1ccccc1)C(=O)NCc1ccc(N)nc1.Cl.Cl [1007_2], the “Ligand-pharmacophore element distance, pharmacophore element C2” value is reported as 0, the “Ligand-pharmacophore element distance, pharmacophore element C3” value is reported as 0 and the “Ligand-pharmacophore element distance, pharmacophore element C4” value is reported as 0. For the same compound, the “Ligand-pharmacophore element distance, pharmacophore element C5” value was 0, the “Ligand-pharmacophore element distance, pharmacophore element C6” value was 0 and the “Ligand-pharmacophore element distance, pharmacophore element C7” value was 0. The “Ligand-pharmacophore element distance, pharmacophore element CA1” value was 0.59, the “Ligand-pharmacophore element distance, pharmacophore element CA2” value was 0.86 and the “Ligand-pharmacophore element distance, pharmacophore element CA3” value was 0. The “Ligand-pharmacophore element distance, pharmacophore element CA4” value was 0, the “Ligand-pharmacophore element distance, pharmacophore element CA5” value was 0 and the “Ligand-pharmacophore element distance, pharmacophore element CA6” value was 0. For the same compound, the “d(CA1,N1)2” value [1] was 1.38, the “d(CA1,O1)” value [1] was 4.52 and the “d(CA1,O2)” value [1] was 4.00. For the same compound, the “d(H4,O1)” value [1] was 3.69, the “d(H4,O2)” value [1] was 2.76 and the “d(O1,O2)” value [1] was 3.63. The “d(N2,CA2)” value [2] was 6.11, the “d(O2,H3)” value [2] was 4.67 and the “d(O2,N2)” value [2] was 2.86. The “a(CA1, O1, O2)” value (Table A6-1 pharmacophore angle) was 107.55, the “a(O1, O2, H4)” value (Table A6-1 pharmacophore angle) was 113.36 and the “a(N1, CA1, O1) b)” value (Table A6-1 pharmacophore angle) was 174.22. The “a(O1, O2, H3)” value (Table A6-2 pharmacophore angle) was 145.74, the “a(O1, O2, N2)” value (Table A6-2 pharmacophore angle) was 133.10 and the “a(O2, N2, CA2)” value (Table A6-2 pharmacophore angle) was 153.46. For the same compound, the “Pharmacophore torsion angle a(H4, O1, O2, H3)” value [3] was 47.32, the “Pharmacophore torsion angle a(H4, O1, O2, N2)” value [3] was 126.25 and the “Pharmacophore torsion angle a(N1, CA1, O1, H4)” value [3] was 48.80. For the same compound, the “Pharmacophore torsion angle a(O1, H4, O2, CA1)” value [3] was −94.30, the “Pharmacophore torsion angle a(O1, O2, N2, CA2)” value [4] was 131.44 and the “Pharmacophore protein distance to MET_658 (first MET_658 column)” value was 2.59. For the same compound, the “Pharmacophore protein distance to MET_658 (second MET_658 column)” value was 3.37, the “Pharmacophore protein distance to GLY_528” value was 3.72 and the “Pharmacophore protein distance to PHE_529” value was 3.20. The “Pharmacophore protein distance to PRO_608” value was 3.12, the “Pharmacophore protein distance to SER_611” value was 2.21 and the “Pharmacophore protein distance to TRP_655” value was 3.60.
In the case of C[C@H](NC(=O)[C@H](N)CCCc1ccccc1)C(=O)NCc1ccc(C(=N)N)cc1.Cl.Cl [1042_1], the “Ligand-pharmacophore element distance, pharmacophore element C2” value is reported as 1.81, the “Ligand-pharmacophore element distance, pharmacophore element C3” value is reported as 0 and the “Ligand-pharmacophore element distance, pharmacophore element C4” value is reported as 0. The “Ligand-pharmacophore element distance, pharmacophore element C5” value was 0, the “Ligand-pharmacophore element distance, pharmacophore element C6” value was 0 and the “Ligand-pharmacophore element distance, pharmacophore element C7” value was 0. For the same compound, the “Ligand-pharmacophore element distance, pharmacophore element CA1” value was 0.87, the “Ligand-pharmacophore element distance, pharmacophore element CA2” value was 0.48 and the “Ligand-pharmacophore element distance, pharmacophore element CA3” value was 0. For the same compound, the “Ligand-pharmacophore element distance, pharmacophore element CA4” value was 0, the “Ligand-pharmacophore element distance, pharmacophore element CA5” value was 0 and the “Ligand-pharmacophore element distance, pharmacophore element CA6” value was 0. The “Ligand-pharmacophore element distance, pharmacophore element H1” value (Table A4-2, element H1) was 0, the “Ligand-pharmacophore element distance, pharmacophore element H2” value (Table A4-2, element H2) was 0 and the “Ligand-pharmacophore element distance, pharmacophore element H3” value (Table A4-2, element H3) was 5.4. For the same compound, the “Ligand-pharmacophore element distance, pharmacophore element H4” value (Table A4-2, element H4) was 3.08, the “Ligand-pharmacophore element distance, pharmacophore element N1” value (Table A4-2, element N1) was 1.3 and the “Ligand-pharmacophore element distance, pharmacophore element N2” value (Table A4-2, element N2) was 0.56. The “Ligand-pharmacophore element distance, pharmacophore element O1” value (Table A4-2, element O1) was 2.71, the “Ligand-pharmacophore element distance, pharmacophore element O2” value (Table A4-2, element O2) was 0.67 and the “Ligand-pharmacophore element distance, pharmacophore element O3” value (Table A4-2, element O3) was 0. For the same compound, the “Ligand-pharmacophore element distance, pharmacophore element O4” value (Table A4-2, element O4) was 0, the “d(CA1,N1)” value [1] was 3.58 and the “d(CA1,O1)” value [1] was 3.98. For the same compound, the “d(CA1,O2)” value [1] was 4.13, the “d(H4,O1)” value [1] was 3.35 and the “d(H4,O2)” value [1] was 3.67. The “d(O1,O2)” value [1] was 3.40, the “d(N2,C2)” value [2] was 3.42 and the “d(N2,CA2)” value [2] was 6.20. The “d(O2,H3)” value [2] was 5.43, the “d(O2,N2)” value [2] was 2.64 and the “a(CA1, O1, O2)” value (Table A6-1 pharmacophore angle) was 117.21. The “a(O1, O2, H4)” value (Table A6-1 pharmacophore angle) was 122.15, the “A(N1, CA1, O1) a)” value (Table A6-1 pharmacophore angle, all compounds with protonatable center N1 except Methyl-amino-pyridine) was 158.11 and the “a(O1, O2, H3)” value (Table A6-2 pharmacophore angle) was 149.96. The “a(O1, O2, N2)” value (Table A6-2 pharmacophore angle) was 170.80, the “a(O2, N2, C2)” value (Table A6-2 pharmacophore angle) was 140.47 and the “a(O2, N2, CA2)” value (Table A6-2 pharmacophore angle) was 155.50. The “Pharmacophore torsion angle a(H4, O1, O2, H3)” value [3] was −19.99, the “Pharmacophore torsion angle a(H4, O1, O2, N2)” value [3] was 68.67 and the “Pharmacophore torsion angle a(N1, CA1, O2, H4)” value [3] was 9.10. The “Pharmacophore torsion angle a(O1, H4, O2, CA1)” value [3] was −160.50, the “Pharmacophore torsion angle a(O1, O2, N2, C2)” value [3] was 115.48 and the “Pharmacophore torsion angle a(O1, O2, N2, CA2)” value [4] was 136.01. The “Pharmacophore protein distance to MET_658 (first MET_658 column)” value was 2.06, the “Pharmacophore protein distance to MET_658 (second MET_658 column)” value was 3.40 and the “Pharmacophore protein distance to GLY_528” value was 4.67. For the same compound, the “Pharmacophore protein distance to PHE_529” value was 3.84, the “Pharmacophore protein distance to PRO_608” value was 3.46 and the “Pharmacophore protein distance to SER_611” value was 2.14. The “Pharmacophore protein distance to TRP_655” value was 3.28.
